Values after ≈ are worked out from the molar mass of the structure shown. Values joined by “and” are separate entries in the source; they are usually repeats but may differ in a detail not shown here. Identical values can stand only once. Like-named read-outs stand apart in the source and are kept apart here.
Legend:
Florida/4/2006 = experiment: microbe, parasite or virus in culture; format: cell-based; details: unidentified influenza virus; Table 7
[1] = system: Influenza B virus, B/Brisbane/60/2008; experiment: microbe, parasite or virus in culture; format: cell-based; details: Table 18, Neutral Red
kinases = experiment: KINOME scan profiling (Table 41)
Perth/16/2009 = experiment: microbe, parasite or virus in culture; format: cell-based; details: unidentified influenza virus; Table 7
A/PR/8 virus H1N1 = experiment: Viral Plaque Reduction Assay (Table 23); format: cell-based, influenza virus; details: Influenza A virus
[2] = system: Influenza A virus H5N1, Hong Kong/213/2003; experiment: microbe, parasite or virus in culture; format: cell-based; details: Influenza A virus, H5N1
[3] = system: Influenza A virus H3N2, Perth/16/2009; experiment: microbe, parasite or virus in culture; format: cell-based
CA/07/2009 = experiment: microbe, parasite or virus in culture; format: cell-based; details: unidentified influenza virus, Table 7
[4] = system: Influenza B virus, B/Florida/4/2006; experiment: microbe, parasite or virus in culture; format: cell-based; details: Table 19, Neutral Red (Cytopathic effect/Toxicity), B/Florida/4/2006, read-out: EC50
[5] = system: Influenza A virus H1N1, California/07/2009; experiment: microbe, parasite or virus in culture; format: cell-based
CA/07/2009 virus H1N1 = experiment: Viral Plaque Reduction Assay (Table 22); format: cell-based; details: Influenza A virus
[6] = system: Influenza A virus H5N1, Hong Kong/213/2003; experiment: microbe, parasite or virus in culture; format: cell-based; details: Influenza A virus, H5N1; remark: listed apart in the source
hERG = hERG (Homo sapiens, UniProt Q12809)
A/Mississippi/03/01H274Y = format: cell-based, influenza virus
[7] = system: Influenza B virus, B/Florida/4/2006; experiment: microbe, parasite or virus in culture; format: cell-based
[8] = system: Influenza A virus H5N1, Duck/MN/1525/81; experiment: microbe, parasite or virus in culture; format: cell-based
[9] = system: Influenza A virus H1N1, California/07/2009; experiment: microbe, parasite or virus in culture; format: cell-based; details: Table 13, Neutral Red, read-out: EC50
[10] = system: Influenza B virus, B/Brisbane/60/2008; experiment: microbe, parasite or virus in culture; format: cell-based
[11] = system: Influenza A virus H3N2, Perth/16/2009; experiment: microbe, parasite or virus in culture; format: cell-based; details: Table 11, Neutral Red, read-out: EC50

hERG, sequence (Q12809 whole entry): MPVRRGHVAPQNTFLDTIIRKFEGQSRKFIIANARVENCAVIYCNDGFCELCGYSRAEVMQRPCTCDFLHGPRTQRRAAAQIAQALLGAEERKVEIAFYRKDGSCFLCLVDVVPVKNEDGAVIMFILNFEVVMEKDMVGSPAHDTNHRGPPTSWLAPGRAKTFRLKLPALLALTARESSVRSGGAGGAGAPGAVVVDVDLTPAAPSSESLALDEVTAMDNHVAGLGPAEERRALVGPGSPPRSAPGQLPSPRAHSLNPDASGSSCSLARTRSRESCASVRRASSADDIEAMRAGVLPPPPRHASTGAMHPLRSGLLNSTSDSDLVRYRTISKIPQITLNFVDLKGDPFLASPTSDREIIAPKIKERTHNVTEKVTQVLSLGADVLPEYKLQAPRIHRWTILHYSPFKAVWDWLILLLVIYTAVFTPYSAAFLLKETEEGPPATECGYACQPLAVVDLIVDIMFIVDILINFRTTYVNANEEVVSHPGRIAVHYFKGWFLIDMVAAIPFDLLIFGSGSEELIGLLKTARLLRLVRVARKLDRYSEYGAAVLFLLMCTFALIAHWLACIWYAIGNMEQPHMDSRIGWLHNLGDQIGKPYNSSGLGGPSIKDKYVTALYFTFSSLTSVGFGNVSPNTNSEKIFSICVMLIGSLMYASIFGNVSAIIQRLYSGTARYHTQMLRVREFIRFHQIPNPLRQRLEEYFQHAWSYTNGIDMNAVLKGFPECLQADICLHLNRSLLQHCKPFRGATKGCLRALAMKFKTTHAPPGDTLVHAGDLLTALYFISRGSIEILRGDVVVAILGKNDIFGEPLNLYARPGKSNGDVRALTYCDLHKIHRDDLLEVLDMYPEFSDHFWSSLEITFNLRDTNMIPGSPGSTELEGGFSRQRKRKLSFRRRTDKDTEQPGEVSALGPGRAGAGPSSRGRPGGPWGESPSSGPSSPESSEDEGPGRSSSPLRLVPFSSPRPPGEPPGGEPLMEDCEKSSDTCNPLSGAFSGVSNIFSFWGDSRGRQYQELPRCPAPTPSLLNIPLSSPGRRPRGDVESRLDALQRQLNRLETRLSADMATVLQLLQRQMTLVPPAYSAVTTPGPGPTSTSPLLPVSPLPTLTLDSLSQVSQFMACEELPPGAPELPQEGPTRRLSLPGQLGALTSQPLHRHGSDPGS

**Q.** Which results are given for `CC(=O)N[C@H]1[C@H]([C@H](OC(=O)NCCCCCCCCCNC(=O)c2cc(C(=O)NCCCCCCCCCNC(=O)O[C@@H]([C@@H]3OC(C(=O)O)=C[C@H](NC(=N)N)[C@H]3NC(C)=O)[C@H](O)CO)c(C(=O)N[C@H](CC(=O)NCS(=O)(=O)O)C(=O)NCS(=O)(=O)O)cc2C(=O)N[C@H](CC(=O)NCS(=O)(=O)O)C(=O)NCS(=O)(=O)O)[C@H](O)CO)OC(C(=O)O)=C[C@@H]1NC(=N)N` [MD185, PK2PYR(Zn)2[(D-Asp)(NHCH2SO3)2]2]?
**A.** EC50 (Florida/4/2006): < 0.00013 µg/mL and < 0.07 nM; EC50 [1]: 6.2 ng/mL (≈ 3.34 nM); Number of Hits (kinases): 0; EC50 (Perth/16/2009): < 0.00013 µg/mL and < 0.07 nM; EC50 (A/PR/8 virus H1N1): 4.26 nM; EC50 [2]: < 0.32 ng/mL; EC90 [3]: 0.86 ng/mL (≈ 0.464 nM); EC50 (CA/07/2009): 3.2 nM; EC50 (CA/07/2009; MDCK cell line): 6 ng/mL; EC50 [4]: 6.2 ng/mL (≈ 3.34 nM); EC90 [5]: 0.26 ng/mL (≈ 0.14 nM); EC50 (CA/07/2009 virus H1N1): 9.5e-05 µg/mL and 0.0514 nM; EC90 [6]: < 0.32 ng/mL; hERG IC50 (hERG): not calculable; EC50 (A/Mississippi/03/01H274Y): 0.89 nM; EC50 [7]: 6 ng/mL (≈ 3.24 nM); EC90 [8]: 1.53 ng/mL (≈ 0.825 nM); EC50 [9]: 0.15 ng/mL (≈ 0.0809 nM); EC50 [10]: 6 ng/mL (≈ 3.24 nM); EC50 [11]: 0.1 ng/mL (≈ 0.0539 nM)

Reference: patent publication US11007274B2, “Compounds for medicinal applications” (Ausvir Therapeutics Pty LTD, priority 2015, dated 2021)
